Source: patent US9274128B2, “Transcriptional repression leading to parkinson's disease” (priority 2010, dated 2016)
Peptide text beside a SMILES is read from it. * marks the point of attachment. Cbz = O=C(OCc1ccccc1)*

Tested on: proteasome
Experiment: PARIS steady state levels in SH-SY5Y cells treated with proteasome inhibitor (immunoblot)
Assay type: cell-based, human
Conditions: for PARIS steady state level: 10 μM MG-132 vs DMSO control, normalized to β-actin
Protocol: Human neuroblastoma SH-SY5Y cells (ATCC, Manassas, Va.) were grown in DMEM containing 10% FBS and antibiotics in a humidified 5% CO2/95% air atmosphere at 37° C. For transient transfection, cells were transfected with indicated amounts of target vector using Lipofectamine Plus (Invitrogen), according to manufacturer's instructions. For co-immunoprecipitation from cell cultures, SH-SY5Y cells were transfected with 2 μg of each plasmid, unless otherwise indicated. For the ubiquitination assay, SH-SY5Y cells were transiently transfected with 2 μg of pRK5-Myc-tagged parkin, Myc-tagged parkin (C431F, G430D, R275W, and Q311 X) pCMV-FLAG-PARIS, and 2 μg of pMT123-HA-ubiquitin plasmids for 48 hours. For the luciferase assay SH-SY5Y cells were transiently transfected with pCMV-empty vector or pCMV-FLAG-PARIS with either wild type or Q311X parkin, or pGL3-Basic, pGL3-PGC-1α promoter-Luciferase, or pGL3-PGC-1α promoter deletion mutant (a gift from Akyoshi Fukamizu, University of Tsukuba, Japan) (Daitoku et al., 2003) for firefly Luciferase assay and 0.1 μg pRL-TK vector (Promega) for Renilla luciferase control.
The tissues including nine different organs, eight different brain regions from C57/BL6 mouse, human brain, and mouse brain were homogenized in lysis buffer [10 mM Tris-HCl, pH 7.4, 150 mM NaCl, 5 mM EDTA, 0.5% Nonidet P-40, 10 mM Na-β-glycerophosphate, […] I and II (Sigma), and Complete Protease Inhibitor Mixture (Roche)], using a Diax 900 homogenizer. After homogenization, samples were rotated at 4° C. for 30 min for complete lysis, then the homogenate was centrifuged at 52,000 rpm for 20 min, and the resulting fractions were collected. Protein levels were quantified using the BCA kit (Pierce) with BSA standards and analyzed by immunoblot. Immunoblotting was performed with an antibody of interest and was performed with chemiluminescence (Pierce). The densitometric analyses of the bands were performed using ImageJ (NIH, http://rsb.info.nih.gov/ij/). Data are expressed as mean±S.E.M. The results were evaluated for statistical significance by applying the unpaired two-tailed Student's t-test or Student-Newman-Keuls. Differences were considered significant when p<0.05.

CC(C)C[C@@H](C=O)NC(=O)[C@H](CC(C)C)NC(=O)[C@H](CC(C)C)NC(=O)OCc1ccccc1 [MG132] (Cbz-Leu-Leu-Leu-aldehyde)
PARIS steady state level: increased approximately two to three fold
PARIS steady state level (listed as MG-132): increases PARIS steady state levels
Parkin-mediated degradation of FLAG-PARIS (MYC-parkin to FLAG-PARIS 4 to 1, 10 μM MG-132): blocked
Parkin-mediated degradation of FLAG-PARIS (MYC-parkin to FLAG-PARIS 4 to 1, 10 μM MG-132, listed as MG-132): prevents the degradation of FLAG-PARIS
